Test results as given in patent US20110165652A1, “COMPOSITIONS, METHODS AND SYSTEMS FOR SINGLE MOLECULE SEQUENCING” (LIFE TECHNOLOGIES CORPORATION, priority 2008, published 2011).
Entries after “also recorded” stand apart in the source; their conditions may differ.

Tests used:
Format in all cases: biochemical
[1] = Initial tests of reaction rate of alpha-phosphate modified dGTP; conditions: data not shown
[2] = Exonuclease activity of Phi29 variants; conditions: printed in column Ensemble Extension Activity or in text
γ-dGTP = experiment: 7-base homopolymeric extension reactions (FIG. 19B, 19C); conditions: for extension under limiting conditions: 30 second to 1 minute extension time
Description: When the aspartic acid at position 456 is mutated, the activity is reduced but still detectable. FIG. […]
Three residues that have been implicated in catalysis of nucleotide incorporation by phi29 DNA polymerase are D458, D456, and V250 (Berman, Kamtekar et al., 2007). […] In one embodiment, D456 is mutated to glutamic acid, thus distorting the active site, but still allowing catalysis due to the presence of the functional group. The backbone of V250 additionally appears to play a role in catalysis; in some embodiments, the chemistry step will be slowed by mutating the V250 residue to an isoleucine or alanine in order to slow the chemistry step.

[3] = system: 5′ fluorescein-labeled primer:template duplex; experiment: Ensemble primer extension with gamma-labeled dNTP by Phi29 mutant protein; conditions: for Ensemble Extension Activity: γ-nucleotide incorporation: relative to parent Phi29 exo(−) D12A/D66A, 0.5 μM or 5 μM gamma-labeled dNTP, 10 seconds to 5 minutes; for extension (FIG. 70C, 70D): ensemble PAGE analyses
Description: Table 1, below, summarizes the ability of each mutant Phi29 polymerase to incorporate gamma-labeled nucleotides (as indicated in the column entitled “Ensemble Extension Activity”), fidelity of replication (as indicated in the column entitled “Fidelity”) and for activity in a single-molecule detected system, as depicted in FIGS. 20-59′ and 69-76 and associated description (see below), and indicated in the last column, entitled “Activity on Detection System.” Each and every mutation introduced into a given Phi29 mutant protein is listed in the column entitled “Mutations”; mutations are designated by the original amino acid/its position/its replacement, e.g., V250A means that valine at position 250 was replaced by alanine by site specific mutagenesis. If two or more amino acid substitutions are made, then each is designated as above and separated by a “/”. The predicted effect of a given mutation on polymerase activity, based on structure-function analysis of Phi29 polymerase, is provided in the column entitled “Expected Effect.” The various Phi29 mutants generated via selective mutagenesis, along with any applicable results of extension studies, fidelity assays and single molecule detection studies using each mutant protein, are collectively summarized in Table 1, below. To perform the extension studies, 330 nM Phi29 mutant protein and 100 nM 5′ fluorescein-labeled primer:template duplex were co-incubated in a solution comprising 50 mM Tris (pH 7.0), 2 mM MnCl2, 2 mM DTT, 0.1% Triton-X-100, 0.01% Tween-20. The reactions were initiated by addition of 0.5 μM or 5 μM of gamma-labeled dNTP, and quenched via addition of 30 mM EDTA at timepoints ranging from 10 seconds to 5 minutes. The reaction products were then separated on a 20% denaturing acrylamide gel and imaged on a Bio-Rad Molecular Imager FX. The intensity of each reaction product was quantified using Bio-Rad Quantity One software. FIGS. 20-59′ depict the results of extension studies conducted using specific Phi29 mutants.

[4] = system: template specifying incorporation of a single γ-labeled nucleotide; experiment: Real time on-surface single molecule detection of γ-labeled nucleotide incorporation; conditions: for Activity on Detection System: more signals: number of signals relative to parent enzyme; for Activity on Detection System: Signals detected (timing of appearance) / Activity on Detection System: high ASB signals / Activity on Detection System: long duration signals: relative to parent enzyme
Method: Real time “On surface” experiments were performed to characterize the activity of the Phi29 variants on an exemplary single molecule sequencing system (FIGS. 72A and B). Chambered slides were prepared to facilitate injection and multiple experiments data collection from several chambers using a single slide. The template specified incorporation of a single γ-labeled nucleotide. The samples were excited using a 488 nm Argon ion laser at 2.5 mW and the data were collected at 25 ms integration time. Each stream of data was collected for 1500 frames, consecutive streams were collected for ˜5 minutes by moving to new fields of views (FOVs). FRETAN software was used to obtain the donor and acceptor traces.
After trace analysis, the selected signals (with acceptor signal over background greater than 4, i.e., ASN≧4) were characterized by examining attributes including duration, ASN and timing of signal appearance (i.e., start of signals). The variants that are of special interest include Variants 2 and 3.

dG2Oy650 = experiment: Inc50: nucleotide concentration at which half of the primer is extended one base in sixty seconds; conditions: dG2Oy650 in duplicate
Description: In one exemplary embodiment, an alanine was substituted for the valine at position 250. As is seen in FIG. 70C (Variant 5) the rate of extension by this mutant polymerase is decreased relative to wild type. […] To compensate for the reduced extension we combined V250A with several mutations that increase binding efficiency of γ-modified nucleotides. […] As is seen in FIG. 70C, Variant 2, the extension of the V250A mutant is improved through introduction of the E375Y mutation. The mutation V250A was also combined with the mutations E375A/Q380A as well as E375C.

[5] = system: 5′ fluorescein-labeled primer:template duplex; experiment: Replication fidelity: primer extension with incorrect (non-complementary) gamma-labeled nucleotide; conditions: incorrect gamma-labeled nucleotide in lieu of the complementary one
Method: To assay the replication fidelity of each mutant Phi29 polymerase protein, primer extensions were carried out in the same manner, except that an incorrect (i.e., non-complementary) gamma-labeled nucleotide was added to the extension mixture in lieu of the complementary nucleotide, and the amount of extended product following extension in presence of the incorrect nucleotide was analyzed.

[6] = system: template specifying incorporation of a single γ-labeled nucleotide followed by a base-labeled nucleotide; experiment: On-surface single molecule detection, single γ-labeled nucleotide followed by a base-labeled nucleotide; conditions: for frequency of γ-signals detected: single γ and base-labeled nucleotide incorporation
Method: Similar experiments were performed using a template specifying incorporation of a single γ-labeled nucleotide followed by a base-labeled nucleotide and data were analyzed as described above.
Example sets of signals detected using Phi29 variants over time are shown (FIGS. 72-75). […] Next, considering the appearance of BL-signals, the signals for the parent enzyme (#1) are nicely distributed and follow a Gaussian distribution (peak in the 121-180 second bin), whereas Variant 2's BL-signals appear between 0-120 seconds—again indicating an earlier appearance of signals when Variant 2 is compared with the parent enzyme.

BP(=O)(OCC1OC(n2cnc3c(=O)[nH]c(N)nc32)CC1O)OP(=O)(O)OP(=O)(O)O (stereo not drawn) [[alpha]-P-borano-dGTP]
reduction of reaction rate as compared to the natural counterpart [1]: 1.32 fold

Nc1nc2c(ncn2[C@H]2C[C@H](O)[C@@H](COP(O)(=S)OP(=O)(O)OP(=O)(O)O)O2)c(=O)[nH]1 (stereo partly drawn) [[alpha]-P-thiol-dGTP]
reduction of reaction rate as compared to the natural counterpart [1]: 1.61 fold

D12A/D66A/D169A: Phi29 polymerase exo minus variant
exonuclease activity [2]: exo deficient

D169A: Phi29 polymerase variant generated by total DNA synthesis [Variant D169A]
exonuclease activity [2]: exo deficient

D456E: Phi29 exo(−) (D12A/D66A) polymerase mutant [Variant D456E]
extension under limiting conditions (γ-dGTP; 1 μM γ-dGTP): significant impact
Ensemble Extension Activity: first base extension ([3]; γ-nucleotides): Increased first
Activity on Detection System: more signals [4]: Fewer signals.

D456N: Phi29 exo(−) (D12A/D66A) polymerase mutant [Variant D456N]
extension under limiting conditions (γ-dGTP; 1 μM γ-dGTP): significant impact
extension under limiting conditions (γ-dGTP; 1 μM γ-dGTP, listed as D456 to an asparagine): significantly reduced extension
extension under permissive conditions (γ-dGTP; 5 minutes with 5 μM nucleotides): somewhat reduced extension
Ensemble Extension Activity: γ-nucleotide incorporation [3]: Impaired
Activity on Detection System: more signals [4]: Fewer signals.

E375A: Phi29 exo(−) (D12A/D66A) polymerase mutant [Variant E375A]
Inc50 (dG2Oy650): reduced
extension (FIG. 70C, 70D) ([3]; γ-nucleotides): increased extension
Ensemble Extension Activity: γ-nucleotide incorporation [3]: More efficient
Fidelity (mis-incorporation) [5]: No mis-
Activity on Detection System: more signals [4]: 3x more signals.

N62D: mutant based on wild type Φ29 DNA polymerase [Variant N62D]
exonuclease activity [2]: Still has exo

Parent Enzyme Phi29exo(−) D12A/D66A: Phi29 polymerase with mutations D12A and D66A, SEQ. ID: 3, reduced exonuclease activity
Ensemble Extension Activity: γ-nucleotide incorporation [3]: Benchmark
appearance of BL-signals after injection (window; peak bin for parent) [6]: 121 to 180 s
frequency of γ-signals detected [6]: few signals are detected
exonuclease activity ([2]; listed as D12A/D66A): exo deficient
exonuclease activity ([2]; listed as Phi29 exo(−)): reduced exonuclease activity
Fidelity (mis-incorporation) [5]: No mis-
Activity on Detection System: more signals [4]: Benchmark

Phi29: Phi29 polymerase benchmark of the Inc50 comparison in Table 1; probably the exo(−) parent [reference compound]
Inc50 (dG2Oy650): (Phi29 = 0.14)

T15I: mutant based on wild type Φ29 DNA polymerase [Variant T15I]
exonuclease activity [2]: Still has exo

V250A/E375A/Q380A: Phi29 exo(−) (D12A/D66A) polymerase mutant
Ensemble Extension Activity: γ-nucleotide incorporation [3]: Decreased rate
Fidelity (mis-incorporation) [5]: appears to remain intact; also recorded: No mis-
Activity on Detection System: more signals [4]: 3x more signals.
Activity on Detection System: Signals detected (timing of appearance) [4]: earlier.
Activity on Detection System: high ASB signals [4]: More high ASB signals.
Activity on Detection System: long duration signals [4]: More long duration

V250A/E375C: Phi29 exo(−) (D12A/D66A) polymerase mutant
Ensemble Extension Activity: γ-nucleotide incorporation [3]: Decreased rate
Fidelity (mis-incorporation) [5]: appears to remain intact; also recorded: No mis-
Activity on Detection System: more signals [4]: 3.5x more signals.
Activity on Detection System: Signals detected (timing of appearance) [4]: earlier.
Activity on Detection System: long duration signals [4]: More long duration

V250A/E375Y: Phi29 exo(−) (D12A/D66A) polymerase mutant
extension (FIG. 70C, 70D) ([3]; γ-nucleotides, listed as 2): slowed in incorporation
extension (FIG. 70C, 70D) ([3]; γ-nucleotides, listed as Variant 2): improved
Ensemble Extension Activity: γ-nucleotide incorporation [3]: Decreased rate
appearance of BL-signals after injection (window; peak bin for parent) [6]: 0 to 120 s
time after injection in which most of the γ-signals are detected [6]: ≤ 60 s
frequency of γ-signals detected [6]: higher frequency
Fidelity (mis-incorporation) [5]: appears to remain intact; also recorded: No mis-
Activity on Detection System: more signals [4]: 3x more signals.
Activity on Detection System: high ASB signals [4]: More high ASB signals.
Activity on Detection System: long duration signals [4]: More long duration
ASN of signals (population of molecules) ([4]; signals with ASN≧4): higher ASN
duration of signals (population of molecules) ([4]; signals with ASN≧4): longer duration
frequency of events detected ([4]; signals with ASN≧4): higher frequency of events detected

V250A: Phi29 exo(−) (D12A/D66A) polymerase mutant [Variant V250A]
extension within a minute (γ-dGTP; 1 μM γ-dGTP): at least 5 bases
extension under limiting conditions (γ-dGTP; 1 μM γ-dGTP): visibly slowing down extension
Inc50 (dG2Oy650): remains relatively unaffected
extension (FIG. 70C, 70D) ([3]; γ-nucleotides): decreased
Ensemble Extension Activity: γ-nucleotide incorporation [3]: Decreased rate
Activity on Detection System: more signals [4]: Fewer signals.
